{
  "source": "patent US7794994B2",
  "about": "(Kemeta, LLC, priority 2001, dated 2010)",
  "key": {"[1]": {"tested_on": "S-ADH from X. autotrophicus strain Py2", "assay": "Secondary alcohol dehydrogenase NADH oxidation spectrophotometric assay", "format": "biochemical, Xanthobacter autotrophicus strain Py2", "details": "for ability to serve as electron donor in acetone reduction assays: data not shown", "protocol": "(§1) Assays were performed in 2 mL quartz cuvettes and contained NAD(H) (0.2 mM), potassium phosphate buffer (25 mM), and a source of enzyme (cell-free extracts, column fractions, or purified enzyme) in a total reaction volume of 1 mL at pH 6.2 ([…]) at 30° C. Assays were pre-incubated for 1.5 min. at 30° C. with all assay components except substrate. Assays were initiated by addition of substrate (2.5 mM) and monitored over time by measuring the change in absorbance at 340 nm (∈340 of 6.22 mM^−1·cm^−1 for NADH).\nData analysis. Kinetic constants (Km and Vmax) were calculated by fitting initial rate data to the Michaelis-Menten equation and using the software KaleidaGraph Fourth Edition, (Synergy Software, Reading, Pa.)."}, "[2]": {"details": "constant perfusion at 1.36 mmol/min. for three hours; cited from earlier work"}, "[3]": {"tested_on": "3-enzyme system (S-ADH coupled to lactate dehydrogenase and pyruvate oxidase)", "assay": "S-ADH coupled to H2O2 formation electrochemical assay (3-enzyme system), interference compounds", "format": "biochemical, X. autotrophicus Py2", "details": "Acetone plus 10 mM ethanol, 50 μM isopropanol or 50 μM isobutanol; data not shown", "protocol": "Secondary alcohol dehydrogenase coupled to H2O2 formation electrochemical assay. […] Before measurements the electrode surface was polished using Al2O3 paste for 1 min. and then rinsed with deionized water, sonicated for 1 min. and rinsed with water again. The polished Pt electrode was then pretreated electrochemically by applying 10 cycles of 100 mV/s from +200 mV to +900 mV. All potentials were referenced versus a Ag/AgCl electrode (BAS part number MF-2078). Assays contained potassium phosphate (100 mM, pH 7.2), purified S-ADH (1 U/mL), NADH (201 μM), lactate (100 mM), lactate dehydrogenase (5 U/mL), pyruvate oxidase (4 U/mL), flavin adenine dinucleotide (0.01 mM), cocarboxylase (0.2 mM), in a total volume of 0.5 mL. […] After a 2 min. incubation period, the potential was stepped from open circuit to 350 mV."}, "[4]": {"tested_on": "S-ADH from M. vaccae JOB-5", "assay": "S-ADH spectrophotometric assay, propane-grown M. vaccae JOB-5", "format": "biochemical, Mycobacterium vaccae strain JOB-5", "details": "alcohol oxidation rates, pH 7.6, 2.5 mM substrate, 0.2 mM NAD+; 2-propanol = 100; NA = no activity detected", "protocol": "as §1"}, "[5]": {"target": "T1, acetone carboxylase coupled to β-hydroxybutyrate dehydrogenase (Xanthobacter versatilis, UniProt Q8RM03+Q8RM04)", "T1 construct": "host or cells: X. autotrophicus strain Py2 (native organism; enzyme obtained from Prof; S. A. Ensign / purified as previously published)", "T1 sequence (Q8RM03 1-776)": "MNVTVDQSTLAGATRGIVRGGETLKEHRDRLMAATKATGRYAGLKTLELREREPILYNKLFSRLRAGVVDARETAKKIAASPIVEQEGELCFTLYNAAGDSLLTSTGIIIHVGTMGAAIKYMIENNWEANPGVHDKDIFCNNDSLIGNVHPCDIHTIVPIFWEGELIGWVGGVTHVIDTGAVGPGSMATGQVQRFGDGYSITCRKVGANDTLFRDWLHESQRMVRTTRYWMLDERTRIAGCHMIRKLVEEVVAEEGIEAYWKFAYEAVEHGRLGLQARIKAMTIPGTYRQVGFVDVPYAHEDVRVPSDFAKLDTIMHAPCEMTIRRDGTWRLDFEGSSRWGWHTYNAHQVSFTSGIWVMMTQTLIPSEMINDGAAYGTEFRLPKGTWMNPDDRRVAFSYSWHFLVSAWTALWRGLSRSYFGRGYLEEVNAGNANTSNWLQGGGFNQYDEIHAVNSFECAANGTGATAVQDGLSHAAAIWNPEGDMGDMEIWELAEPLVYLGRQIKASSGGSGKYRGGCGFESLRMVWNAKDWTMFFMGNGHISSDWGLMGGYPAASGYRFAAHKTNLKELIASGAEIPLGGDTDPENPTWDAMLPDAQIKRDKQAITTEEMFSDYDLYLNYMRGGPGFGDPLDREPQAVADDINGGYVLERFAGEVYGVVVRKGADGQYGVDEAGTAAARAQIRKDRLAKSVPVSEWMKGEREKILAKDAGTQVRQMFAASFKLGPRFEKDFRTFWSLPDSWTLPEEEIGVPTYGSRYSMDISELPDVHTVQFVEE", "T1 sequence (Q8RM04 1-717)": "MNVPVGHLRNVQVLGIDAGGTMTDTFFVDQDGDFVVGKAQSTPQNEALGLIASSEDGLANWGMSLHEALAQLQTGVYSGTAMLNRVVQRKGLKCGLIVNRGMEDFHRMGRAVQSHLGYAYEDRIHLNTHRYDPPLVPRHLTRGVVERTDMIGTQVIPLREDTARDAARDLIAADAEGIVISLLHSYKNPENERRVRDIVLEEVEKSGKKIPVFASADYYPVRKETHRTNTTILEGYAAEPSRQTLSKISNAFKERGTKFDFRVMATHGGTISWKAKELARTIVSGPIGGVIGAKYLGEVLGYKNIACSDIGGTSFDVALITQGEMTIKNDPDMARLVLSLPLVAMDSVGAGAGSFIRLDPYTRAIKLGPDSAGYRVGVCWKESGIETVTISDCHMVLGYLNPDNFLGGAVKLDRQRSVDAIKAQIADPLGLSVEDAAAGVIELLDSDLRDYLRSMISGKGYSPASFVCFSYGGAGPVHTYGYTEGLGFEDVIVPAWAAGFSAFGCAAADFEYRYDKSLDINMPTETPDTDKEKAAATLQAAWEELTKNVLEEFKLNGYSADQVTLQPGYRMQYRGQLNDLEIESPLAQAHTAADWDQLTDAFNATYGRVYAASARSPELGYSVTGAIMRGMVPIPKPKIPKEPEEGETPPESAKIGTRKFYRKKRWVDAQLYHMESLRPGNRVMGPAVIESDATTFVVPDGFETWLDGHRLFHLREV", "T1 sequence (Q8RM02 2-168 partner limits assumed)": "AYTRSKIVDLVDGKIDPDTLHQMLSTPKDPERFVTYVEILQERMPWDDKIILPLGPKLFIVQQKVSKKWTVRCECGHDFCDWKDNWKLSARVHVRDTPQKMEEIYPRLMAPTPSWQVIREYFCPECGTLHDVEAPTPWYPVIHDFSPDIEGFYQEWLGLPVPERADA", "assay": "Acetone carboxylase coupled to NADH oxidation spectrophotometric assay", "format": "biochemical, X. autotrophicus strain Py2", "details": "alternative compounds in coupled enzyme system", "protocol": "Assays were performed in 2 mL (1 cm path length) quartz cuvettes that had been modified by fusing a serum bottle-style quartz top (7×13 mm at mouth), allowing the cuvettes to be sealed with a red rubber serum stopper. […] The addition of […] (3 U) and NADH (0.2 mM) allowed acetoacetate formation to be coupled to the oxidation of NADH. […] The reaction was monitored by measuring the decrease in absorbance at 340 nm (∈340 of 6.22 mM^−·cm^−1 for NADH) over time in an Agilent Technologies (Palo Alto, Calif.) model 8453 UV-Visible Spectroscopy System containing a thermostat-controlled cell holder at 30° C."}, "S-ADH from C. boidinii": {"tested_on": "S-ADH from C. boidinii", "assay": "S-ADH spectrophotometric assay, C. boidinii S-ADH", "format": "biochemical, Candida boidinii", "details": "alcohol oxidation rates, pH 7.6, 5 mM substrate, 0.2 mM NAD+; 2-propanol = 100", "protocol": "as §1, with “Assays were initiated by addition of substrate (2.5 mM) and monitored over time by measuring the change in absorbance at 340 nm (∈340 of 6.22 mM^−1·cm^−1 for NADH).” left out"}, "S-ADH from strain IP-1": {"tested_on": "S-ADH from strain IP-1", "assay": "S-ADH spectrophotometric assay, partially purified S-ADH of isolate IP-1", "format": "biochemical, isopropanol-grown bacterial strain TDCC IP-1", "details": "alcohol oxidation rates, pH 7.6, 2.5 mM substrate, 0.2 mM NAD+; 2-propanol = 100; NA = no activity detected", "protocol": "Protein purifications. […] Secondary alcohol dehydrogenase (S-ADH) from X. autotrophicus Py2 was purified via the following protocol. Cell-free extracts (380 mL) of isopropanol-grown X. autotrophicus Py2 (150 g) were prepared as described above, and applied to a 5×15 cm column of DEAE-Sepharose FAST FLOW (Diethylaminoethyl cross-linked agarose bead material; Catalog number 17-0709-10, Amersham Pharmacia Biotech, Piscataway, N.J.)) equilibrated in buffer A (25 mM MOPS (3-(N-morpholino)propanesulfonic acid), pH 7.6, 5% glycerol, 1 mM dithiothreitol) at a flow rate of 10 mL/min. After loading, the column was washed with […] buffer A and developed with a 2400 mL linear gradient of 90-290 mM KCl in buffer A. Fractions containing S-ADH activity were pooled and dialyzed against 2 L of 25 mM potassium phosphate (pH 6.2) containing 5% glycerol (buffer B) for 16 h at 4° C. […] After washing the column with 30 mL of buffer B, S-ADH was eluted with 20 mL of buffer A containing 10 mM NAD^+. Fractions containing S-ADH were then dialyzed against 2 L of buffer A for 16 h at 4° C., concentrated by ultrafiltration (using a YM30 ultrafiltration membrane; catalog no. 13722, from Millipore, Bedford, Mass.), and frozen in liquid nitrogen. Partially purified S-ADH from bacterial screen cultures was prepared as follows: cell-free extracts from 1 to 5 g of cell paste were prepared as described above and applied to a 5 mL HI TRAP Q column (quaternary, tetraethylammonium, cross-linked agarose bead material for use as an anion exchange matrix; catalog number 17-1153-01, Amersham Pharmacia Biotech) equilibrated in 100 mM MOPS, pH 7.6, containing 5% (v/v) glycerol (buffer C). The column was washed with 10 mL buffer C and developed with a 100 mL linear gradient of 0 to 100 mM NaCl in buffer C. Fractions containing S-ADH activity were pooled, concentrated to 0.5 mL using a 30 kDa MWCO (“molecular weight cut-off”) centrifugal membrane (catalog number UFV4BTK25, Millipore), and stored at −80° C.\nas §1"}},
  "data": [
    {"smiles": "NC(=O)C1=CN([C@@H]2O[C@H](COP(=O)(O)OP(=O)(O)OC[C@H]3O[C@@H](n4cnc5c(N)ncnc54)[C@H](OP(=O)(O)O)[C@@H]3O)[C@@H](O)[C@H]2O)C=CC1", "note": "[NADPH, nicotinamide adenine dinucleotide phosphate, reduced form]", "values": [
      {"measurement": "ability to serve as electron donor in acetone reduction assays", "setting": "[1]", "result": "not"}
    ]},
    {"smiles": "CC(=O)CC(=O)[O-].[Na+]", "note": "[Na acetoacetate]", "values": [
      {"measurement": "blood ketone body concentration at the end of perfusion", "setting": "[2]", "result": 3, "unit": "µmol·mL"}
    ]},
    {"smiles": "NC(=O)C1=CN([C@@H]2O[C@H](COP(=O)(O)OP(=O)(O)OC[C@H]3O[C@@H](n4cnc5c(N)ncnc54)[C@H](O)[C@@H]3O)[C@@H](O)[C@H]2O)C=CC1", "note": "[NADH, nicotinamide adenine dinucleotide, reduced form]", "values": [
      {"measurement": "Km", "setting": "[1]; acetone at fixed saturating concentration, read-out: Km for NADH", "result": "5.1 ± 0.4", "unit": "µM"},
      {"measurement": "ability to serve as electron donor in acetone reduction assays", "setting": "[1]", "result": "could serve as the electron donor"}
    ]},
    {"smiles": "CC(C)CO", "note": "[isobutanol]", "values": [
      {"measurement": "interference with the acetone measurement (current response)", "setting": "[3]", "result": "do not interfere"}
    ]},
    {"smiles": "CCCCO", "note": "[1-Butanol]", "values": [
      {"measurement": "Relative S-ADH Activity (%) X. Py2, alcohol oxidation", "setting": "[1]; alcohol oxidation rates, pH 7.6, 2.5 mM substrate, 0.2 mM NAD+, 2-propanol = 100, NA = no activity detected", "result": 7, "unit": "%"},
      {"measurement": "specific activity, alcohol oxidation", "setting": "[1]; at pH 7.8", "result": "1.7±0.2 μmol alcohol oxidized min^−1mg^−1 protein"},
      {"measurement": "Relative S-ADH Activity (%) JOB 5, alcohol oxidation", "setting": "[4]", "result": 10, "unit": "%"},
      {"measurement": "activity as substrate and inhibition of acetone carboxylation activity", "setting": "[5]", "result": "not active nor did they inhibit acetone carboxylation activity"},
      {"measurement": "Relative S-ADH Activity (%) C. boidinii, alcohol oxidation", "setting": "S-ADH from C. boidinii", "result": 6, "unit": "%"},
      {"measurement": "Relative S-ADH Activity (%) IP-1, alcohol oxidation", "setting": "S-ADH from strain IP-1", "result": 2, "unit": "%"}
    ]}
  ]
}
